Experiments:
Test in all cases: biochemical
Type in all cases: binding
[1] = target: 468 kinases (Homo sapiens, UniProt P31152); conditions: ERK4; read-out: % Inhibition @ 100 nM
[2] = target: 468 kinases (Homo sapiens, UniProt P27037); conditions: ACVR2A; read-out: % Inhibition @ 100 nM
[3] = target: 468 kinases (Homo sapiens, UniProt O75116); conditions: ROCK2; read-out: % Inhibition @ 100 nM
[4] = target: 468 kinases (Homo sapiens, UniProt P54764); conditions: EPHA4; read-out: % Inhibition @ 100 nM
[5] = target: 468 kinases (Homo sapiens, UniProt Q8TBX8); conditions: PIP5K2C; read-out: % Inhibition @ 100 nM
[6] = target: 468 kinases (Homo sapiens, UniProt Q9P2K8, S808G); conditions: GCN2(Kin.Dom.2,S808G); read-out: % Inhibition @ 100 nM
[7] = target: 468 kinases (Homo sapiens, UniProt Q04912); conditions: MST1R; read-out: % Inhibition @ 100 nM
[8] = target: 468 kinases (Homo sapiens, UniProt P49674); conditions: CSNK1E; read-out: % Inhibition @ 100 nM
[9] = target: 468 kinases (Homo sapiens, UniProt Q9H0K1); conditions: SIK2; read-out: % Inhibition @ 100 nM
[10] = target: 468 kinases (Homo sapiens, UniProt P36894); conditions: BMPR1A; read-out: % Inhibition @ 100 nM
[11] = target: 468 kinases (Homo sapiens, UniProt P07332); conditions: FES; read-out: % Inhibition @ 100 nM
[12] = target: 468 kinases (Homo sapiens, UniProt P36897); conditions: TGFBR1; read-out: % Inhibition @ 100 nM
[13] = target: 468 kinases (Homo sapiens, UniProt P24941); conditions: CDK2; read-out: % Inhibition @ 100 nM
[14] = target: 468 kinases (Homo sapiens, UniProt P41743); conditions: PRKCI; read-out: % Inhibition @ 100 nM
[15] = target: 468 kinases (Homo sapiens, UniProt Q12851); conditions: MAP4K2; read-out: % Inhibition @ 100 nM
[16] = target: 468 kinases (Homo sapiens, UniProt Q8WU08); conditions: YANK1; read-out: % Inhibition @ 100 nM
[17] = target: 468 kinases (Homo sapiens, UniProt Q8WTQ7); conditions: GRK7; read-out: % Inhibition @ 100 nM
[18] = target: 468 kinases (Homo sapiens, UniProt P53350); conditions: PLK1; read-out: % Inhibition @ 100 nM
[19] = target: 468 kinases (Homo sapiens, UniProt O00506); conditions: YSK1; read-out: % Inhibition @ 100 nM
[20] = target: 468 kinases (Homo sapiens, UniProt Q13554); conditions: CAMK2B; read-out: % Inhibition @ 100 nM
[21] = target: 468 kinases (Homo sapiens, UniProt P42680); conditions: TEC; read-out: % Inhibition @ 100 nM
[22] = target: 468 kinases (Homo sapiens, UniProt P42336, E545K); conditions: PIK3CA(E545K); read-out: % Inhibition @ 100 nM
[23] = target: 468 kinases (Homo sapiens, UniProt P16591); conditions: FER; read-out: % Inhibition @ 100 nM
[24] = target: 468 kinases (Homo sapiens, UniProt P08581, M1250T); conditions: MET(M1250T); read-out: % Inhibition @ 100 nM
[25] = target: 468 kinases (Homo sapiens, UniProt Q9NYL2); conditions: ZAK; read-out: % Inhibition @ 100 nM
[26] = target: 468 kinases (Homo sapiens, UniProt P51955); conditions: NEK2; read-out: % Inhibition @ 100 nM
[27] = target: 468 kinases (Homo sapiens, UniProt P36896); conditions: ACVR1B; read-out: % Inhibition @ 100 nM
[28] = target: 468 kinases (Homo sapiens, UniProt Q13705); conditions: ACVR2B; read-out: % Inhibition @ 100 nM
[29] = target: 468 kinases (Homo sapiens, UniProt Q14164); conditions: IKK-epsilon; read-out: % Inhibition @ 100 nM
[30] = target: 468 kinases (Homo sapiens, UniProt Q8IW41); conditions: MAPKAPK5; read-out: % Inhibition @ 100 nM
[31] = target: 468 kinases (Homo sapiens, UniProt P42336, H1047L); conditions: PIK3CA(H1047L); read-out: % Inhibition @ 100 nM
[32] = target: 468 kinases (Homo sapiens, UniProt O14730); conditions: RIOK3; read-out: % Inhibition @ 100 nM
[33] = target: 468 kinases (Homo sapiens, UniProt Q99759); conditions: MAP3K3; read-out: % Inhibition @ 100 nM

## CCN(CC)CCNC(=O)c1c(C)[nH]c(/C=C2\C(=O)Nc3ccc(CCC(N)=O)cc32)c1C [Compound No. 16, (Z)-5-((5-(3-Amino-3-oxopropyl)-2-oxoindolin-3-ylidene)methyl)-N-(2-(diethylamino)ethyl)-2,4-dimethyl-1H-pyrrole-3-carboxamide]
[1]
  inhibition at 0.1 µM: 4%
[2]
  inhibition at 0.1 µM: 18%
[3]
  inhibition at 0.1 µM: 44%
[4]
  inhibition at 0.1 µM: 0%
[5]
  inhibition at 0.1 µM: 1%
[6]
  inhibition at 0.1 µM: 0%
[7]
  inhibition at 0.1 µM: 0%
[8]
  inhibition at 0.1 µM: 4%
[9]
  inhibition at 0.1 µM: 15%
[10]
  inhibition at 0.1 µM: 0%
[11]
  inhibition at 0.1 µM: 0%
[12]
  inhibition at 0.1 µM: 1%
[13]
  inhibition at 0.1 µM: 7%
[14]
  inhibition at 0.1 µM: 37%
[15]
  inhibition at 0.1 µM: 89%
[16]
  inhibition at 0.1 µM: 23%
[17]
  inhibition at 0.1 µM: 76%
[18]
  inhibition at 0.1 µM: 28%
[19]
  inhibition at 0.1 µM: 22%
[20]
  inhibition at 0.1 µM: 10%
[21]
  inhibition at 0.1 µM: 0%
[22]
  inhibition at 0.1 µM: 41%
[23]
  inhibition at 0.1 µM: 0%
[24]
  inhibition at 0.1 µM: 6%
[25]
  inhibition at 0.1 µM: 10%
[26]
  inhibition at 0.1 µM: 5%
[27]
  inhibition at 0.1 µM: 0%
[28]
  inhibition at 0.1 µM: 12%
[29]
  inhibition at 0.1 µM: 44%
[30]
  inhibition at 0.1 µM: 28%
[31]
  inhibition at 0.1 µM: 15%
[32]
  inhibition at 0.1 µM: 100%
[33]
  inhibition at 0.1 µM: 48%

## CCN(CC)CCNC(=O)c1c(C)[nH]c(/C=C2\C(=O)Nc3ccc(CCO)cc32)c1C [Compound No. 10, (Z)—N-(2-(Diethylamino)ethyl)-5-((5-(2-hydroxyethyl)-2-oxoindolin-3-ylidene)methyl)-2,4-dimethyl-1H-pyrrole-3-carboxamide]
[1]
  inhibition at 0.1 µM: 0%
[2]
  inhibition at 0.1 µM: 10%
[3]
  inhibition at 0.1 µM: 29%
[4]
  inhibition at 0.1 µM: 0%
[5]
  inhibition at 0.1 µM: 0%
[6]
  inhibition at 0.1 µM: 28%
[7]
  inhibition at 0.1 µM: 5%
[8]
  inhibition at 0.1 µM: 37%
[9]
  inhibition at 0.1 µM: 0%
[10]
  inhibition at 0.1 µM: 0%
[11]
  inhibition at 0.1 µM: 20%
[12]
  inhibition at 0.1 µM: 11%
[13]
  inhibition at 0.1 µM: 0%
[14]
  inhibition at 0.1 µM: 12%
[15]
  inhibition at 0.1 µM: 88%
[16]
  inhibition at 0.1 µM: 0%
[17]
  inhibition at 0.1 µM: 40%
[18]
  inhibition at 0.1 µM: 0%
[19]
  inhibition at 0.1 µM: 21%
[20]
  inhibition at 0.1 µM: 0%
[21]
  inhibition at 0.1 µM: 0%
[22]
  inhibition at 0.1 µM: 56%
[23]
  inhibition at 0.1 µM: 12%
[24]
  inhibition at 0.1 µM: 0%
[25]
  inhibition at 0.1 µM: 10%
[26]
  inhibition at 0.1 µM: 0%
[27]
  inhibition at 0.1 µM: 0%
[28]
  inhibition at 0.1 µM: 1%
[29]
  inhibition at 0.1 µM: 68%
[30]
  inhibition at 0.1 µM: 0%
[31]
  inhibition at 0.1 µM: 16%
[32]
  inhibition at 0.1 µM: 93.9%
[33]
  inhibition at 0.1 µM: 59%

From patent US12435059B2, “AMP-activated protein kinase inhibitors and methods of making and using the same” (The Regents of the University of Colorado, priority 2019, dated 2025)
